Reference: patent publication US20250171423A1, “PHARMACEUTICAL COMPOUNDS FOR THE TREATMENT OF COMPLEMENT MEDIATED DISORDERS” (Achillion Pharmaceuticals, Inc., priority 2020, published 2025)

Each molecule was assayed against T1, Human complement C1s enzyme (Homo sapiens, UniProt P09871) (assay: Human C1s Enzyme Assay). Details: human C1s 1.16 nM, 5 min preincubation, substrate Z-L-Lys-SBzl 100 μM, A405; read-out: C1s Protease Activity.
T1 construct: purified from human serum, Complement Technology, Inc; purchased Complement Technology, Inc; host or cells: human serum
T1 sequence (P09871 438-688 limits assumed): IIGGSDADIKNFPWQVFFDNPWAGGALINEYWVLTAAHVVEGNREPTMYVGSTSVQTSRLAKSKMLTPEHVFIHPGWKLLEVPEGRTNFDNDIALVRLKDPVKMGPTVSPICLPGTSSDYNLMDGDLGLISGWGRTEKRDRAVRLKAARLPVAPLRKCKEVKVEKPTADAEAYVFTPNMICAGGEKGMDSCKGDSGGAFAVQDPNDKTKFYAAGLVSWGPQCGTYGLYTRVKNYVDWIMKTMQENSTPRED
T1 sequence (P09871 16-437 partner limits assumed): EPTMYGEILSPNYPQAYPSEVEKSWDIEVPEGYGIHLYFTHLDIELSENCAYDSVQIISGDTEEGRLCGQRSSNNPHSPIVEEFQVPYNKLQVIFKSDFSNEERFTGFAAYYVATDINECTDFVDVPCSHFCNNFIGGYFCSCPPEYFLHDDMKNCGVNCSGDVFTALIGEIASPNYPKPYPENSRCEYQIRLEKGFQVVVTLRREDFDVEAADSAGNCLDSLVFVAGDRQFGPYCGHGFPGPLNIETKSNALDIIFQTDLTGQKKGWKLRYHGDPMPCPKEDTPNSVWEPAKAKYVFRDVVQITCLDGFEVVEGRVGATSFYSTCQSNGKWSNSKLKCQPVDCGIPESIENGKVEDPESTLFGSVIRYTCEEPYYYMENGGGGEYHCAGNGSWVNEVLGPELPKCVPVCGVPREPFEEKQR
Format: biochemical
Method in brief: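 IC50 values were fitted by nonlinear regression to rates measured as A405 every 30 s for 30 min. The thioester substrate Z-L-Lys-SBzl and Ellman's reagent were each at 100 μM. Serum-derived C1s at 1.16 nM final had 5 min of room-temperature preincubation with compound (pH 7.5 Tris buffer, 1 M NaCl).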

Question: `N=C(N)c1csc(CNC(=O)[C@@H]2C[C@]3(CCO3)CN2C(=O)CNC(=O)c2ccc(Oc3ccccc3)cc2)c1` [Compound 195, (4S,7S)-N-((4-carbamimidoylthiophen-2-yl)methyl)-6-((4-phenoxybenzoyl)glycyl)-1-oxa-6-azaspiro[3.4]octane-7-carboxamide] was tested. Which IC50 did it give?
Answer: < 100 nM

Question: `C[C@@]12C[C@@H]1N(C(=O)CNC(=O)c1ccc(Oc3ccccc3)cc1)[C@H](C(=O)NCc1cc(-c3noc(=O)[nH]3)cs1)C2` [Compound 34, (1S,3S,5S)-5-methyl-N-((4-(5-oxo-4,5-dihydro-1,2,4-oxadiazol-3-yl)thiophen-2-yl)methyl)-2-((4-phenoxybenzoyl)glycyl)-2-azabicyclo[3.1.0]hexane-3-carboxamide] was tested. Which IC50 did it give?
Answer: > 1000 nM

Question: Which IC50 does the source give for `N=C(N)c1csc(CNC(=O)[C@@H]2CC3(CN2C(=O)CNC(=O)CCCOc2ccccc2)OCCO3)c1` [Compound 28, (S)-N-((4-carbamimidoylthiophen-2-yl)methyl)-7-((4-phenoxybutanoyl)glycyl)-1,4-dioxa-7-azaspiro[4.4]nonane-8-carboxamide] here?
Answer: < 100 nM

Question: Which IC50 does the source give for `C[C@@]12C[C@@H]1N(C(=O)CNC(=O)c1ccc(Oc3ccccc3)cc1)[C@H](C(=O)NCc1ccc(N)nc1)C2` [Compound 5] here?
Answer: 100 to 1000 nM

Question: Which IC50 does the source give for `C[C@@]12C[C@@H]1N(C(=O)CNC(=O)c1ccc(Oc3ccccc3)cc1)[C@H](C(=O)NCc1nc(C(=N)N)cs1)C2` [Compound 2, (1S,3S,5S)-N-((4-carbamimidoylthiazol-2-yl)methyl)-5-methyl-2-((4-phenoxy-benzoyl)glycyl)-2-azabicyclo[3.1.0]hexane-3-carboxamide] here?
Answer: < 100 nM

Question: `Cc1cccc([C@@H]2C[C@@H](C(=O)NCc3cc(C(=N)N)cs3)N(C(=O)CNC(=O)CCCOc3ccccc3)C2)c1` [Compound 171, (2S,4S)-N-((4-carbamimidoylthiophen-2-yl)methyl)-1-((4-phenoxybutanoyl)glycyl)-4-(m-tolyl)pyrrolidine-2-carboxamide] was tested. Which IC50 did it give?
Answer: < 100 nM

Question: With `C[C@H](NC(=O)[C@@H]1C[C@]2(C)C[C@@H]2N1C(=O)CNC(=O)c1ccc(Oc2ccccc2)cc1)c1cc(C(=N)N)cs1` (single isomer, unassigned) [Compound 47, (1S,3S,5S)-N-((S*)-1-(4-carbamimidoylthiophen-2-yl)ethyl)-5-methyl-2-((4-phenoxy-benzoyl)glycyl)-2-azabicyclo[3.1.0]hexane-3-carboxamide] as the molecule, how does the IC50 read?
Answer: < 100 nM

Question: `N=C(N)c1csc(CNC(=O)[C@@H]2C[C@]3(CO)C[C@@H]3N2C(=O)CNC(=O)c2ccc(Oc3ccccc3)cc2)c1` [Compound 9, (1S,3S,5R)-N-((4-carbamimidoylthiophen-2-yl)methyl)-5-(hydroxymethyl)-2-((4-phenoxybenzoyl)glycyl)-2-azabicyclo[3.1.0]hexane-3-carboxamide] was tested. Which IC50 did it give?
Answer: < 100 nM

Question: How did the IC50 turn out when `C[C@@]12C[C@@H]1N(C(=O)CNC(=O)c1ccc(Oc3ccc(S(C)(=N)=O)cc3)cc1)[C@H](C(=O)NCc1cc(C(=N)N)cs1)C2` (stereo partly drawn) [Compound 3, (1S,3S,5S)-N-((4-carbamimidoylthiophen-2-yl)methyl)-5-methyl-2-((4-(4-(S-methyl-sulfonimidoyl)phenoxy)benzoyl)glycyl)-2-azabicyclo[3.1.0]hexane-3-carboxamide] was run?
Answer: < 100 nM

Question: `N=C(N)c1csc(CNC(=O)[C@@H]2C[C@](F)(CF)CN2C(=O)CNC(=O)CCCOc2ccccc2)c1` [Compound 33, (2S,4R)-N-((4-carbamimidoylthiophen-2-yl)methyl)-4-fluoro-4-(fluoromethyl)-1-((4-phenoxybutanoyl)glycyl)pyrrolidine-2-carboxamide] was tested. Which IC50 did it give?
Answer: < 100 nM

Question: Which IC50 does the source give for `N=C(N)c1csc(CNC(=O)[C@@H]2C[C@H](OC(F)(F)F)CN2C(=O)CNC(=O)c2ccc(Oc3ccccc3)cc2)c1` [Compound 244, (2S,4S)-N-((4-carbamimidoylthiophen-2-yl)methyl)-1-((4-phenoxybenzoyl)glycyl)-4-(trifluoromethoxy)pyrrolidine-2-carboxamide] here?
Answer: < 100 nM

Question: How did the IC50 turn out when `N=C(N)c1csc(CNC(=O)[C@@H]2CC(c3nccs3)CN2C(=O)CNC(=O)c2ccc(Oc3ccccc3)cc2)c1` (stereo in doubt) [Compound 209, (2S,4R)-N-((4-carbamimidoylthiophen-2-yl)methyl)-1-((4-phenoxybenzoyl)glycyl)-4-(thiazol-2-yl)pyrrolidine-2-carboxamide] was run?
Answer: < 100 nM

Question: With `CC(C)C[C@H](NC(=O)[C@@H]1CC2(CN1C(=O)CNC(=O)CCCOc1ccccc1)OCCO2)c1cc(C(=N)N)cs1` [Compound 221, (S)-N-((S)-1-(4-carbamimidoylthiophen-2-yl)-3-methylbutyl)-7-((4-phenoxybutanoyl)glycyl)-1,4-dioxa-7-azaspiro[4.4]nonane-8-carboxamide] as the molecule, how does the IC50 read?
Answer: > 1000 nM

Question: `N=C(N)c1csc([C@@H](NC(=O)[C@@H]2C[C@@H](OC(F)F)CN2C(=O)CNC(=O)c2ccc(Oc3ccccc3)cc2)C(N)=O)c1` (relative stereo) [Compound 214, (2S,4R)-N-((S*)-2-amino-1-(4-carbamimidoylthiophen-2-yl)-2-oxoethyl)-4-(difluoromethoxy)-1-((4-phenoxybenzoyl)glycyl)pyrrolidine-2-carboxamide] was tested. Which IC50 did it give?
Answer: > 1000 nM

Question: For `C[S@](=N)(=O)[C@@H]1C[C@@H](C(=O)NCc2cc(C(=N)N)cs2)N(C(=O)CNC(=O)c2ccc(Oc3ccccc3)cc2)C1` [Compound 68, (2S,4R)-N-((4-carbamimidoylthiophen-2-yl)methyl)-4-((S)-S-methylsulfonimidoyl)-1-((4-phenoxybenzoyl)glycyl)pyrrolidine-2-carboxamide], which IC50 is on record?
Answer: < 100 nM

Question: `N=C(N)c1csc([C@H](NC(=O)[C@@H]2C[C@@H](OC(F)F)CN2C(=O)CNC(=O)c2ccc(Oc3ccccc3)cc2)C2CCCC2)c1` [Compound 193, (2S,4R)-N-((R)-(4-carbamimidoylthiophen-2-yl)(cyclopentyl)methyl)-4-(difluoromethoxy)-1-((4-phenoxybenzoyl)glycyl)pyrrolidine-2-carboxamide] was tested. Which IC50 did it give?
Answer: > 1000 nM

Question: For `N=C(N)c1csc(CNC(=O)[C@@H]2C[C@H](C(F)(F)F)CN2C(=O)CNC(=O)CCCOc2ccccc2)c1` [Compound 59, (2S,4S)-N-((4-carbamimidoylthiophen-2-yl)methyl)-1-((4-phenoxybutanoyl)glycyl)-4-(trifluoromethyl)pyrrolidine-2-carboxamide], which IC50 is on record?
Answer: < 100 nM

Question: How did the IC50 turn out when `COCCCC(=O)NCC(=O)N1[C@H]2C[C@@]2(C)C[C@H]1C(=O)NCc1cc(C(=N)N)cs1` [Compound 75, (1S,3S,5S)-N-((4-carbamimidoylthiophen-2-yl)methyl)-2-((4-methoxybutanoyl)-glycyl)-5-methyl-2-azabicyclo[3.1.0]hexane-3-carboxamide] was run?
Answer: 100 to 1000 nM

Question: `N=C(N)c1csc(CNC(=O)[C@@H]2C[C@H](C(F)F)CN2C(=O)CNC(=O)c2ccc(Oc3ccccc3)cc2)c1` [Compound 51, (2S,4S)-N-((4-carbamimidoylthiophen-2-yl)methyl)-4-(difluoromethyl)-1-((4-phenoxybenzoyl)glycyl)pyrrolidine-2-carboxamide] was tested. Which IC50 did it give?
Answer: < 100 nM

Question: For `N=C(N)c1csc(CNC(=O)[C@@H]2C[C@@H](C(F)F)CN2C(=O)CNC(=O)CCCOc2ccccc2)c1` [Compound 147, (2S,4R)-N-((4-carbamimidoylthiophen-2-yl)methyl)-4-(difluoromethyl)-1-((4-phenoxybutanoyl)glycyl)pyrrolidine-2-carboxamide], which IC50 is on record?
Answer: 100 to 1000 nM

Question: How did the IC50 turn out when `C[C@@]12C[C@@H]1N(C(=O)CNC(=O)COCCOCCNC(=O)COCCOCCNC(=O)CC[C@H](NC(=O)CCCCCCCCCCCCCCCCC(=O)O)C(=O)O)[C@H](C(=O)NCc1cc(C(=N)N)cs1)C2` [Compound 100, 17-{[(1S)-3-{[2-(2-{[(2-{2-[({2-[(1S,3S,5S)-3-{[(4-carbamimidoylthiophen-2-yl)methyl]-carbamoyl}-5-methyl-2-azabicyclo[3.1.0]hexan-2-yl]-2-oxoethyl}carbamoyl)methoxy]ethoxy}ethyl)-carbamoyl]methoxy}ethoxy)ethyl]carbamoyl}-1-carboxypropyl]-carbamoyl}heptadecanoic acid] was run?
Answer: > 1000 nM

Question: `C[C@@]12C[C@@H]1N(C(=O)CNC(=O)c1ccc(Oc3ccccc3)cc1)[C@H](C(=O)Nc1ccc3c(C(=N)N)csc3c1)C2` [Compound 237, (1S,3S,5S)-N-(3-carbamimidoylbenzo[b]thiophen-6-yl)-5-methyl-2-((4-phenoxybenzoyl)glycyl)-2-azabicyclo[3.1.0]hexane-3-carboxamide] was tested. Which IC50 did it give?
Answer: 100 to 1000 nM

Question: For `N=C(N)c1csc([C@H](NC(=O)[C@@H]2C[C@@H](OC(F)F)CN2C(=O)CNC(=O)c2ccc(Oc3ccccc3)cc2)C(N)=O)c1` (single isomer, unassigned) [Compound 215], which IC50 is on record?
Answer: > 1000 nM

Question: `N=C(N)c1csc(NC(=O)C[C@@H]2CCCN2C(=O)CNC(=O)c2ccc(Oc3ccccc3)cc2)c1` [Compound 40, N-{2-[(2S)-2-{[(4-carbamimidoylthiophen-2-yl)carbamoyl]methyl}pyrrolidin-1-yl]-2-oxoethyl}-4-phenoxybenzamide] was tested. Which IC50 did it give?
Answer: > 1000 nM
